SMILES	melting point [°C]
CCCc1c(OCc2ccc(C(=O)NCCCCc3cccnc3)c(OCC)c2)ccc(C(C)=O)c1O	92 to 93
O=C1CCCN1CCCC(=O)N1CCC(C2c3ncc(Br)cc3CCc3cc(Cl)cc(Br)c32)CC1 (single isomer, unassigned; (+))	127 to 128
Cc1cccc(C)c1NC(=O)N1CCCN(C(C)C)C1	138 to 139
OCC1OC(n2cnc3c(NC(c4ccccc4)c4ccccc4)ncnc32)C(O)C1O (centres undefined)	89 to 96
COc1ccc(COCc2nnc3n2-c2ccc(Cl)cc2C(c2ccccc2)=NC3)cc1	157 to 159
COc1ccc(N=Cc2cc(OC)c(OC)c(OC)c2)cc1	78 to 86
CCCCc1nc2sc3c(NCc4ccco4)ncnc3c2c2c1COC(C)(C)C2	66.1 to 68.5
O=c1[nH]c2cc(Cl)cc(Cl)c2oc1=O	312
CN(NC(=O)c1ccc(C#N)cc1)C(=O)OC(C)(C)C	179 to 181
CCOc1c(C(C)=O)cnc2[nH]ncc12	245 to 248
Fc1cc(F)c2c(c1)C(n1cc[nH]c1=S)CC2 (single isomer, unassigned; (+))	191 to 193
CCCCCCCCCCCCCc1cc(C(=O)OCCC)c[nH]1	51 to 52
CS(=O)(=O)Nc1ccc(Cn2ncc(Cl)c(Cl)c2=O)cc1	152 to 154
CCCc1cc(C(=O)O)ccc1OCCCCCCc1cccc(OC)c1OC	107 to 108
Cc1c(N(C)C)ccc([N+](=O)[O-])c1CO	42 to 43
COC1(c2ccc(C(C)C)cc2O)C(=O)c2ccccc2C1=O	272 to 274
O=C(NCCc1nnn[nH]1)C(CS)C(F)(F)F (centres undefined)	182 to 184
N#Cc1ccc(C(=O)Nc2cccc(-n3nc(C(F)(F)F)cc3C(F)(F)F)c2)cc1	133 to 134
Cc1ccc(SC2CC(=O)N2CC(=O)NCCCCCCc2ccc(Cl)cc2)cc1 (centres undefined)	63 to 65
CC(=O)c1ccc(NS(C)(=O)=O)c(C(=O)Nc2ccc(F)cc2F)c1	153 to 155
COc1cc([N+](=O)[O-])ccc1COP(N)(=O)N(CCCl)CCCl (centres undefined)	102 to 104
CC1(C)OCCC2C(C3(O)CCSC3)C(=O)N21 (centres undefined)	113 to 115
C#Cc1ccc(C=O)cc1	122 to 123
O=C(O)CCCN1CCc2ccc(S(=O)(=O)Nc3ccc(Cl)cc3)cc2C1	210
COc1cc(OC)cc(S(=O)(=O)c2ccc([N+](=O)[O-])c(C)c2)c1	125 to 127
O=C(C=Cc1ccccc1)C(Cc1ccccc1)(Cc1ccccc1)C(=O)C=Cc1ccccc1	182 to 183

SMILES	melting point [°C]
O=Cc1ccc(-c2ccccc2)cc1Cl	90 to 91
CCCCc1sc2ccccc2c1C(=O)c1ccc(NS(=O)(=O)c2ccc(C)cc2)cc1	128
CC1(C)CCC(C)(C)c2cc3c(cc21)CCC=C3Cc1ccc(C(=O)O)cc1	212 to 214
O=[N+]([O-])c1cc(Cl)ccc1-n1cccc1	55 to 56
CCOc1cc2c(-c3ccnc(Cl)c3)c(C(=O)OC)c(C(=O)OC)cc2cc1OC	196 to 198
COC(=O)CCCNS(=O)(=O)c1ccc2ccccc2c1	123 to 125
COCCOc1ccc(/C=C/C(=O)NS(=O)(=O)c2ccc(C)cc2)c(Oc2ncc(C(F)(F)F)cc2Cl)c1	102 to 106
CCc1ccc(SCCC(=O)O)cc1	59 to 60
CC(=NNc1ccc(-c2n[nH]c(=O)cc2C)cc1)c1ccc(O)cc1O	299 to 303
COc1ccc(C(=O)Nc2ccccc2)cc1Nc1cccc(C(F)(F)F)c1	183 to 184
CC(=O)OCC1OC(Oc2nc[nH]c2C(N)=O)C(OC(C)=O)C1OC(C)=O (centres undefined)	132 to 134
COc1cc(C(C)(C)CNC(=O)c2ccccc2)cc2c1OC(C)(C)C2	109 to 110
CCNC(=O)c1cc(N=C=S)ccc1[Si](C)(C)C	106 to 108
CCN(CC)CCNC(=O)c1ccc2cc(I)ccc2c1	105 to 107
CSc1nc(N)nc(N)c1-c1ccc(Cl)cc1Cl	191 to 192
O=C(NCCc1ccccc1)c1ccc(OC(F)(F)F)cc1	143 to 144
Cc1nc2sccn2c(=O)c1CCN1CCC(=C2c3ccccc3CCn3ccnc32)CC1	182
CCCCCCCCCCCCCCCCNc1ccc(C(=O)NCCS(=O)(=O)O)cc1	190 to 220
CSCS[C@H](C)[C@](O)(Cn1cncn1)c1ccc(Cl)cc1	163 to 164
CC(=O)Nc1cc(CN2CCCCC2)c(O)c2c1CCCC2	166 to 167
COc1c(C)cc(-c2cc(-c3ccc(S(C)(=O)=O)cc3)c(N3CCOCC3)s2)nc1C	152
Brc1cccc(Nc2ncnc3cc4c(cc23)OC(CN2CCOCC2)CO4)c1 (centres undefined)	229 to 230
N=C(Nc1cccc2ccccc12)Nc1cccc2ccccc12	210 to 211
O=C(O)CC1(S)C2CC3CC(C2)CC1C3 (centres undefined)	178 to 180
C/C=C/C1CCC2c3ccc(OCC)c(F)c3OC2C1 (centres undefined)	145
O=C(O)CCC(c1ccccc1)c1ccccc1F (centres undefined)	105

SMILES	melting point [°C]
CC(C)(C)OC(=O)Nc1ccccc1NC(=O)c1ccc(C#N)nc1	183 to 184
NCC1c2ccccc2C=Cc2ccccc21	95 to 96.5
CC(=O)N1CCN(N=Cc2ccc(F)cc2)CC1	88 to 90
Cc1oc(-c2ccccc2)nc1CCOc1ccc([N+](=O)[O-])cn1	110 to 112
CC(C)(C)N(Cc1ccccc1)NC(=O)c1ccco1	152
CS(=O)(=O)c1ccc(C(=O)N[C@H]2CC[C@H](CCN3CCC(c4cccc5c4CCO5)CC3)CC2)s1	255
CCOC(=N)CC1(C)OCCc2c1[nH]c1ccccc21 (centres undefined)	140 to 141
CCCCc1nc2c(N)nc3cccnc3c2n1CCNC(=O)C1CCCCC1	188 to 190
N#CN=C(Nc1cccnc1)NC(NC(=O)c1ccc(Cl)cc1)C1CC1 (centres undefined)	137 to 139
O=Cc1ccccc1OCC(=O)NCCO[N+](=O)[O-]	99 to 101
CC(=O)Nc1ccc(/C=C/C(=O)NCC(=O)N(C)c2ccc(Cl)c(CBr)c2Cl)cn1	222 to 223
O=C1C2=C(CCCC2)C(=O)N1c1ccc(Br)cc1F	102
Nc1nc(Nc2ccccc2)sc1C(=O)c1ccsc1	171 to 172
CCCCN(Cc1ccc(-c2ccccc2-c2nnn[nH]2)cc1)c1nc(C)ncc1C(=O)OCC	164 to 166
O=C(Nc1ccc(F)cc1)c1nnc2ccccc2c1O	280 to 284
O=C(O)c1cc(Cl)c(Cl)nc1Cl	164 to 168
O=c1[nH]c2ccccc2nc1-c1cc(O)c(O)c([N+](=O)[O-])c1	> 300
COCc1nc2c(N)nc3ccccc3c2n1CC(C)(C)O	174 to 175
COC(=O)c1ccc(OCCNC(=O)C2Cc3ccccc3N2S(=O)(=O)c2ccc(-c3cccc(C(F)(F)F)c3)cc2)c(C(F)(F)F)c1 (centres undefined)	92 to 98
O=C(Cn1ccnc1)c1ccc(F)cc1F	125
CC(=O)n1c(=O)n(-c2ccc(Cl)cc2)c(=O)n1C(C)=O	148 to 150
CC1(C)OC(C=Cc2cc(Cl)cc(Cl)c2)=CC1=O	129 to 131
CC1(C)CCC(C)(C)c2cc(-c3cc(-c4ccc(CN)cc4)on3)ccc21	138 to 143
CCOC(=O)C1(n2cc(Br)cc2C(=O)C(Cl)(Cl)Cl)CC(=O)NC1=O (centres undefined)	196 to 198
CCOc1ccc2c(c1)n(C1CCCCC1)c(=O)n2Cc1ccc(C(=O)NC(C)(C)C)cc1OC	186
CC(=O)c1ccc(C=CC(=O)N2CCc3c([nH]c4ccccc34)C2c2ccc3c(c2)OCO3)cc1O (centres undefined)	217 to 218

SMILES	melting point [°C]
CCCCCCC1CC(=O)C2=C(C1)NC(=O)CC2 (centres undefined)	142 to 144
CCCC1CCC(c2ccc(-c3cc(F)c(F)c(F)c3C=O)cc2)CC1 (centres undefined)	62
CC(=O)Nc1ccc(OC(=O)CO)cc1	144 to 146
CCCCCCCCCCCOc1cccc(C(=O)O)c1	88
CN(C(=O)c1ccc2nonc2c1)[C@H]1CC[C@H](n2ncnn2)CC1	172 to 175
C#CCC(NC(=O)c1ccc(C)cc1)C(C)=O (centres undefined)	65 to 67
COc1cc(-n2cc(C(=O)O)c(=O)c3cc(F)c(F)c(C)c32)ccc1F	> 280
CC(C)(C)OC(=O)NC(O)CCO (centres undefined)	83 to 85
CN(CC#N)Cc1nc(-c2cc(C(C)(C)C)c(O)c(C(C)(C)C)c2)cs1	150 to 156
Cc1c(-c2ccc(O)cc2)sc(C#N)c1-c1ccc(O)cc1	282 to 284
Cc1cc(-c2nc3cccnn3c2-c2ccnc(N)c2)ccc1F	179 to 180
O=c1ccn2c(c1O)C(c1ccc(Cl)cc1)OCC2 (centres undefined)	211 to 214
CP(=O)(O)CCC(=O)O	95
O=C(O)C(=O)c1ccc(OCCCn2c(=O)c3ccccc3c3ccccc32)cc1	202 to 204
CNC(=O)ON=C(C)SC(C)C(N)=O (centres undefined)	161 to 163
COc1ccc(-c2ccc(C(=O)Nc3ccc4cc(CN5CCCC5)cnc4c3C)c(F)c2)cc1	164 to 166
CC1(C)CNc2nc(-c3ccncc3)cc(=O)n2C1	152 to 154
CCn1nc2c(OC)nc3ccccc3c2c1CO	219 to 220
CC(C)C(=O)N[C@H]1C[C@H](C(=O)O)Nc2cc(Cl)cc(Cl)c21 (relative stereo)	197 to 198
CCN(C(=O)OC)c1c(C(=O)c2cnoc2C2CC2)ccc(S(C)(=O)=O)c1Cl	128 to 131
O=C(O)c1cc2cc(-c3ccccc3)ccc2o1	220 to 221
COc1ccc(N2CCN(c3c(C)c(C)c4c(c3C)CC(C)(Cn3ccnc3C)O4)CC2)cc1 (centres undefined)	86 to 90
Clc1ccc(-c2cnccn2)cc1Cl	118 to 119
CCCCN(CCCC)CCCOc1ccc(S(=O)(=O)c2ccc3ccccc3c2)cc1	90
CCN(Cc1ccccc1)c1nc(=O)c2cc(C(F)(F)F)cc([N+](=O)[O-])c2s1	94 to 97
O=C(O)C1=CSC2CC(=O)N12 (centres undefined)	235
